Holding throughout (format): in vivo
For one assay, the system named is KM mice. Kind of assay: Light-dark box test in mice (anti-anxiety test). The following applies: 2.5 mg/kg/d gavage, 7 days, test 1 h after administration on Day 8. As for the experimental part:
Mice were randomly divided into 5 groups, i.e. high-dose group (14 mg/kg/d), medium-dose group (7 mg/kg/d), low-dose group (3.5 mg/kg/d) of Albiflorin, diazepam group (2.5 mg/kg/d), NS group. Gavage administration was performed once a day, for consecutive 7 days. During the administration, animals had free access to feed and water. The test was carried out 1 hour after the administration on Day 8.
Within the light-dark box (44 cm×21 cm×21 cm), the dark box accounts for one third thereof, with a cover on the top; while the light box accounts for two thirds thereof, providing illumination brightness; and there is a hole between the two boxes for animal to pass through. In the test, mice were placed in the center of the light box, back to the dark box, and then observed. The times of entering into the dark box followed by returning to the light box in mice were counted, as an index for the assession of anti-anxiety effect of a drug.

Assay [1] deals with ICR mice. Kind of assay: Spontaneous actions in mice. The following applies: 14 days after administration. As for the experimental part: (§1) 140 ICR mice (15-17 g, male, purchased from Institute of Laboratory Animal Sciences, CAMS & PUMC) were randomly divided into 10 groups (14 mice per group) as follows: paeoniflorin group at a dose of 100 mg/kg, paeoniflorin group at a dose of 50 mg/kg, paeoniflorin group at a dose of 25 mg/kg, paeoniflorin group at a dose of 12.5 mg/kg, albiflorin group at a dose of 28 mg/kg, albiflorin group at a dose of 14 mg/kg, albiflorin group at a dose of 7 mg/kg, normal saline control group, high-dose group of doxepin as a positive drug (25 mg/kg), and low-dose group of doxepin as a positive drug (1 mg/kg).

Assay [2] relates to ICR mice. Briefly: Sleeping-inducing test of pentobarbital sodium at the subthreshold dose. The following applies: 2 mg/kg, 14 days; pentobarbital sodium 35 mg/kg ip.
In assay [3] the test system is ICR mice. Briefly: Sleep-prolonging test of pentobarbital sodium at the suprathreshold dose. The following applies: 10 days, pentobarbital sodium 51 mg/kg ip. How it is done:
(§2) If the mice were kept in a supine position for more than 1 min, it would be considered that the righting reflex was disappeared in mice. After spontaneously rolling over, the mice were immediately placed in a supine position. If the mice could roll over within 1 min, it would be considered that the righting reflex was recovered. The time of the righting reflex being disappeared and recovered in mice were recorded. The period from the mice being intraperitoneally injected with pentobarbital sodium until the righting reflex being disappeared in mice was recorded as sleep latency. The period from the righting reflex being disappeared in mice until the righting reflex being recovered in mice was recorded as sleep duration. The sleep duration of more than 5 min in mice was considered as being asleep.
The mice were administered with drugs for consecutive 10 days. 1 h after the last administration, the mice were intraperitoneally injected with the suprathreshold dose of pentobarbital sodium (51 mg/kg, 0.1 ml/10 g). The righting reflex being disappeared and recovered in mice were observed, and the time of the righting reflex being disappeared and recovered in mice were recorded. The evaluation criteria of sleep latency, sleep duration and sleep rate were the same as those in Section 7.2.1.

The subject of assay [4] is ICR mice. Kind of assay: Sleeping-inducing test of pentobarbital sodium at the subthreshold dose. The note with it: 14 days, pentobarbital sodium 35 mg/kg ip. How it is done:
as §1, §2
The mice were administered with drugs for consecutive 14 days. 1 h after the last administration, the mice were intraperitoneally injected with the subthreshold dose of pentobarbital sodium (35 mg/kg, 0.1 ml/10 g). The righting reflex being disappeared and recovered in mice were observed, and the time of the righting reflex being disappeared and recovered in mice were recorded. The evaluation criteria of sleep latency, sleep duration and sleep rate were the same as those in Section 7.2.1.

The next assay deals with 5-HT1A receptor. Kind of assay: mRNA expression of 5-HT1A receptor in hippocampus of chronic stress rats (RT-PCR). The following applies: 2.5 mg/kg/d, 21 days. As for the experimental part:
After having free access to food and being deprived water for 24 h, 72 normal rats were administered with 1% sucrose aqueous solution, and measured the consumption within 1 h. According to the consumption of sucrose aqueous solution, the rats were randomly divided into six groups, 12 […] per group, i.e. normal control group, model group, positive drug Prozac group (2.5 mg/kg/d), high-dose group (70 mg/kg/d, comprising 11.2 mg of albiflorin), medium-dose group (35 mg/kg/d, comprising 5.6 mg of albiflorin), and low-dose group (17.5 mg/kg/d, comprising 2.8 mg of albiflorin) of Paeonia lactiflora Pall extract. When being modeled, the rats were simultaneously administered with drugs, once a day, for consecutive 21 days. […]
According to the instruction of TRIzol reagent, the total RNAs were extracted by one-step guanidine-isothiocyanate method. The integrity of the extracted total RNAs was confirmed by 0.9% agarose gel electrophoresis, and the content and purity of RNA were determined by UV spectrophotometer. […]
30 μl of 5-HT1A-R-amplified product and 10 μl of Actin-amplified product were mixed, and then subjected to 1.5% agarose gel electrophoresis. […] The ratio of IOD5-HTR/IODActin was the relative quantification of the amplified products, and the intergroup comparisons were carried out.

The values below come from patent publication US9555055B2, “Use of albiflorin and metabolites thereof” (priority 2010, dated 2017).

Structures can show the parent of a compound that is named as a salt. Marks after values point to notes of the source that are not given here.

With `CN1C(=O)CN=C(c2ccccc2)c2cc(Cl)ccc21` [Diazepam], in the assay on KM mice, the “Times of Returning from Dark Box back to Light Box” value was found to be 13.6 ± 3.35. For the same compound, the “Times of Spontaneous Action” value in the assay with ICR mice [1] (2 mg/kg) is 301.85 ± 103.11. For the same compound, in the assay with ICR mice [2], the “Number of Sleeping Mice/Group” value is given as 12 and the “Sleep Rate” value is reported as 12/13*.
On to `CN(C)CCC=C1c2ccccc2COc2ccccc21.Cl` [Doxepin, Doxepin Hydrochloride], for which the “Times of Spontaneous Action” value in the assay on ICR mice [1] (1 mg/kg) stood at 420.50 ± 110.28. In the assay with ICR mice [3] (1 mg/kg), the “Sleep Duration” value is 74.91 ± 16.55 min and the “Sleep Latency” value was found to be 4.38 ± 1.60 min. Further, in the assay on ICR mice [3] (25 mg/kg), the “Sleep Duration” value was 63.60 ± 12.09 min and the “Sleep Latency” value amounted to 4.72 ± 2.40 min. Also, in the assay on ICR mice [4] (1 mg/kg), the “Number of Sleeping Mice/Group” value is listed as 1 and the “Sleep Rate” value was 1/12.
For `C[C@@]12C[C@@]3(O)O[C@@H](O1)[C@]1(COC(=O)c4ccccc4)[C@H]3C[C@@]12O[C@@H]1O[C@H](CO)[C@@H](O)[C@H](O)[C@H]1O` [Paeoniflorin, paeoniflorin], the “Times of Spontaneous Action” value in the assay with ICR mice [1] (12.5 mg/kg) is 456.71 ± 93.95; with ICR mice [1] (25 mg/kg), 468.71 ± 73.56; in the assay with ICR mice [1] (50 mg/kg), 503.00 ± 137.04; with ICR mice [1] (100 mg/kg), 434.45 ± 76.43. Moreover, the “Sleep Duration” value with ICR mice [3] (12.5 mg/kg) amounted to 74.57 ± 13.02 min; in the assay on ICR mice [3] (25 mg/kg) it was 68.64 ± 19.23 min; in the assay with ICR mice [3] (50 mg/kg) it was 73.70 ± 27.88 min; in the assay with ICR mice [3] (100 mg/kg), 72.98 ± 20.83 min. The “Sleep Latency” value came out at 4.11 ± 1.52 min in the assay on ICR mice [3] (12.5 mg/kg), 4.96 ± 2.18 min in the assay with ICR mice [3] (25 mg/kg), 5.17 ± 1.37 min with ICR mice [3] (50 mg/kg) and 28.10 ± 44.63 min with ICR mice [3] (100 mg/kg). Also, the “Number of Sleeping Mice/Group” value was found to be 2 with ICR mice [4] (12.5 mg/kg), 4 in the assay on ICR mice [4] (25 mg/kg), 5 with ICR mice [4] (50 mg/kg) and 3 in the assay on ICR mice [4] (100 mg/kg). The “Sleep Rate” value in the assay with ICR mice [4] (12.5 mg/kg) is listed as 2/13; with ICR mice [4] (25 mg/kg) it was 1/3; in the assay with ICR mice [4] (50 mg/kg), 5/12; in the assay on ICR mice [4] (100 mg/kg), 3/11.
In the case of `CNCCC(Oc1ccc(C(F)(F)F)cc1)c1ccccc1` (centres unmarked) [Positive Drug, fluoxetine hydrochloride], the “mRNA expression of 5-HT1A receptor (ratio IOD5-HTR/IODActin)” value in the assay with 5-HT1A receptor was determined as 0.63 ± 0.21.
